Test results: ChEMBL document CHEMBL1201862, “PubChem BioAssay data set” (2004)
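Step 1: Grow cells in 96-well plates. Step 2: Expose to compound for 48 hours at 5 concentrations. Step 3: Interpolate endpoints linearly; if unreached, use highest concentration. GI50 = concentration required for 50% inhibition of growth.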 Active and inactive are the calls of the source. Cut-off read from the data, not from the text of the source: active = GI50 up to about 1.1 µM and inactive = higher.

Tests used:
Experiment in all cases: NCI-60 cell line screen, 48 h
HCT-116 = system: HCT-116
DMS-273 = system: DMS-273
LXFL 529 = system: LXFL 529
NCI-H522 = system: NCI-H522
A549 = system: A549
NCI-H23 = system: NCI-H23
SW-620 = system: SW-620
KM-20L2 = system: KM-20L2
M14 = system: M14
KM12 = system: KM12
UACC-62 = system: UACC-62
Malme-3M = system: Malme-3M
MOLT-4 = system: MOLT-4
SNB-19 = system: SNB-19
SK-MEL-28 = system: SK-MEL-28
NCI/ADR-RES = system: NCI/ADR-RES
MCF7 = system: MCF7
HOP-92 = system: HOP-92

Compound	GI50 (HCT-116)	GI50 (DMS-273)	GI50 (LXFL 529)	GI50 (NCI-H522)	GI50 (A549)	GI50 (NCI-H23)	GI50 (SW-620)	GI50 (KM-20L2)	GI50 (M14)	GI50 (KM12)	GI50 (UACC-62)	GI50 (Malme-3M)	GI50 (MOLT-4)	GI50 (SNB-19)	GI50 (SK-MEL-28)	GI50 (NCI/ADR-RES)	GI50 (MCF7)	GI50 (HOP-92)
COC(c1cccc(C(O)(C(F)(F)F)C(F)(F)F)c1)(C(F)(F)F)C(F)(F)F	16.9 µM (inactive)	19.3 µM (inactive)	17.5 µM (inactive)	13.5 µM (inactive)	16.6 µM (inactive)	19.7 µM (inactive)	18.8 µM (inactive)	16.9 µM (inactive)	18.7 µM (inactive)	19.5 µM (inactive)	14.3 µM (inactive)	19.4 µM (inactive)	22 µM (inactive)	19.4 µM (inactive)	> 10 µM (inactive)			
Cn1c(=O)nc2n(-c3ccc(Br)cc3)c3ccccc3nc-2c1=O	4.11 µM (inactive)	1.88 µM (inactive)	12.2 µM (inactive)	4.39 µM (inactive)	2.02 µM (inactive)	0.783 µM (active)	2.06 µM (inactive)	2.54 µM (inactive)	3.75 µM (inactive)	8.83 µM (inactive)	1.3 µM (inactive)	3.61 µM (inactive)	6.25 µM (inactive)	2.9 µM (inactive)				
O=P1(Oc2ccc(Cl)cc2Cl)Oc2cc3ccccc3cc2O1	> 78.2 µM (inactive)	59.6 µM (inactive)		26.5 µM (inactive)	66.2 µM (inactive)	43.9 µM (inactive)	70.1 µM (inactive)	> 100 µM (inactive)		43.8 µM (inactive)	43.7 µM (inactive)	> 100 µM (inactive)	23.5 µM (inactive)	> 100 µM (inactive)	> 100 µM (inactive)	84.1 µM (inactive)	31.8 µM (inactive)	28.5 µM (inactive)
Cc1cc(C)n(CCNCCn2nc(C)cc2C)n1	> 100 µM (inactive)	> 100 µM (inactive)	> 100 µM (inactive)	> 100 µM (inactive)	> 100 µM (inactive)	> 100 µM (inactive)	> 100 µM (inactive)	> 100 µM (inactive)	> 100 µM (inactive)	> 100 µM (inactive)	> 100 µM (inactive)		> 100 µM (inactive)	> 100 µM (inactive)	91 µM (inactive)			> 100 µM (inactive)
CSCC[C@@H](NC(=O)[C@H](CC(C)C)NC(=O)C(Cc1cnc[nH]1)NC(=O)CNC(=O)[C@@H](NC(=O)[C@H](C)NC(=O)[C@H](Cc1c[nH]c2ccccc12)NC(=O)[C@H](CCC(N)=O)NC(=O)[C@@H](N)CC(N)=O)C(C)C)C(N)=O (some centres undefined)	> 100 µM (inactive)	> 100 µM (inactive)		> 100 µM (inactive)	> 100 µM (inactive)	> 100 µM (inactive)	> 100 µM (inactive)	> 100 µM (inactive)		> 100 µM (inactive)	> 100 µM (inactive)	> 100 µM (inactive)	> 55.7 µM (inactive)	> 100 µM (inactive)	> 100 µM (inactive)	> 100 µM (inactive)	> 100 µM (inactive)	> 100 µM (inactive)
COC(=O)c1ccc(/N=N/N(C)CO)cc1	> 100 µM (inactive)	63.1 µM (inactive)	43.6 µM (inactive)	> 100 µM (inactive)	> 100 µM (inactive)	> 100 µM (inactive)	> 100 µM (inactive)	> 100 µM (inactive)	71.1 µM (inactive)	> 100 µM (inactive)	51.1 µM (inactive)	> 100 µM (inactive)	> 100 µM (inactive)	86.5 µM (inactive)	> 100 µM (inactive)			
O=C1C(c2ccccc2)=[N+]([O-])c2cc([N+](=O)[O-])c(/C(Cl)=C/c3ccccc3)cc21		18.1 µM (inactive)	> 10 µM (inactive)		40.1 µM (inactive)	22.7 µM (inactive)	17.3 µM (inactive)		16 µM (inactive)	22.8 µM (inactive)	30.6 µM (inactive)		13.9 µM (inactive)	31.3 µM (inactive)	27.4 µM (inactive)			
Cc1cc(NS(=O)(=O)c2ccc(NC(=O)c3cccc4cc5ccccc5nc34)cc2)no1	6.7 µM (inactive)	13.8 µM (inactive)	15.8 µM (inactive)	15.5 µM (inactive)	22 µM (inactive)	17.2 µM (inactive)	25.3 µM (inactive)	27.7 µM (inactive)	23.5 µM (inactive)	16.4 µM (inactive)	13.8 µM (inactive)	14.8 µM (inactive)	17.1 µM (inactive)	6.46 µM (inactive)	8.36 µM (inactive)			
CCCCc1c2c(nc3c1CCCC3=O)CCCC2	> 100 µM (inactive)	> 100 µM (inactive)	> 100 µM (inactive)	> 100 µM (inactive)	> 100 µM (inactive)	> 100 µM (inactive)	> 100 µM (inactive)	20 µM (inactive)	> 100 µM (inactive)	> 100 µM (inactive)		50.2 µM (inactive)	> 100 µM (inactive)	> 100 µM (inactive)	> 100 µM (inactive)			
Cc1ccccc1NC(=O)CSc1nnc(-c2ccc(/N=C\c3ccc(Cl)cc3)cc2)o1	> 100 µM (inactive)	> 100 µM (inactive)	> 100 µM (inactive)		> 100 µM (inactive)	> 100 µM (inactive)	> 100 µM (inactive)	> 100 µM (inactive)	> 100 µM (inactive)	> 100 µM (inactive)	> 100 µM (inactive)	> 100 µM (inactive)	> 100 µM (inactive)	> 100 µM (inactive)	> 100 µM (inactive)			
CCCCC#C[I+]c1ccccc1	16 µM (inactive)	14.1 µM (inactive)	12.2 µM (inactive)	3.53 µM (inactive)	17.8 µM (inactive)	13.6 µM (inactive)		18.3 µM (inactive)	15.5 µM (inactive)	14.2 µM (inactive)	17 µM (inactive)	14.8 µM (inactive)	3.82 µM (inactive)	16.9 µM (inactive)	17 µM (inactive)			11.7 µM (inactive)
CC1=C(O)C(=O)[C@@H]2O[C@@H]2C1=O	7.36 µM (inactive)	22.8 µM (inactive)		2 µM (inactive)	27.3 µM (inactive)	12.7 µM (inactive)	3.65 µM (inactive)	17.2 µM (inactive)		14.1 µM (inactive)	8.49 µM (inactive)	6.14 µM (inactive)	2.97 µM (inactive)	32.8 µM (inactive)	5.98 µM (inactive)	10.7 µM (inactive)	10 µM (inactive)	5.57 µM (inactive)
COc1cc2c(cc1OC)C(Cl)C(c1ccc(Cl)cc1)=C2Cl (centres undefined)		17.7 µM (inactive)	4.23 µM (inactive)	12 µM (inactive)		14.2 µM (inactive)	18.7 µM (inactive)	18.1 µM (inactive)	15.4 µM (inactive)		12.5 µM (inactive)	22 µM (inactive)	6.73 µM (inactive)	27.2 µM (inactive)	19.1 µM (inactive)			12.6 µM (inactive)
